The source of these data is patent publication US11518760B2 (Liverpool School of Tropical Medicine, priority 2017, dated 2022).

Each structure is given as a SMILES string.

The test system of the assay is C6/36 Aedes albopictus cell line infected with Wolbachia pipientis (Wolbachia strain wAlbB). Nature of the assay: In vitro insect cell line assay (anti-Wolbachia screen, SYTO 11 high content imaging). Type of assay: cell-based. As to conditions: 168 h; C6/36 Aedes albopictus cells infected with Wolbachia pipientis wAlbB, 7 days incubation, SYTO 11 imaging; read-out: In vitro anti-Wolbachia activity. In a few lines:
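Wolbachia wAlbB-infected C6/36 Aedes albopictus cells were exposed to compounds at a final 5 μM for 7 days at 26 °C, with DMSO-medium wells as untreated controls. Cells were then stained with SYTO 11 for 15 min, imaged by high-content microscopy and scored by texture analysis.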
`CC(C)N(C)c1nc(N(C)Cc2cccnc2C(F)(F)F)c2cccnc2n1` [Example 161, N^2-isopropyl-N^2,N^4-dimethyl-N^4-((2-(trifluoromethyl)pyridin-3-yl)methyl)pyrido[2,3-d]pyrimidine-2,4-diamine]: the EC50 fell in the range of 1 to 10 nM.

As for `Cc1nc(N(C)C(C)c2ccccc2C(F)(F)F)c2sc(C=O)cc2n1` (centres unmarked) [Example 77], the EC50 lay within 100 to 1000 nM.

`FC(F)(F)OCC1CCCN1c1nc(NCc2cccnc2C(F)(F)F)c2cccnc2n1` (centres unmarked) [Example 299, 2-(2-((trifluoromethoxy)methyl)pyrrolidin-1-yl)-N-((2-(trifluoromethyl)pyridin-3-yl)methyl)pyrido[2,3-d]pyrimidin-4-amine]: the EC50 was < 0.01 nM.

Turning to `CC(C)Nc1nc(NCc2c(Cl)cccc2Cl)c2sccc2n1` [Example 27, N^4-(2,6-dichlorobenzyl)-N-isopropylthieno[3,2-d]pyrimidine-2,4-diamine], the EC50 was 1000 to 100000 nM.

For `FC(F)(F)c1ncccc1CNc1nc(N2CCOCC2)nc2ncccc12` [Example 192, 2-morpholino-N-((2-(trifluoromethyl)pyridin-3-yl)methyl)pyrido[2,3-d]pyrimidin-4-amine], the EC50 was 10 to 100 nM.

Consider `C[C@H]1COCCN1c1nc(N2CCC2c2cccnc2C(F)(F)F)c2cccnc2n1` (stereo partly drawn) [Example 289, (3S)-3-methyl-4-(4-(2-(2-(trifluoromethyl)pyridin-3-yl)azetidin-1-yl)pyrido[2,3-d]pyrimidin-2-yl)morpholine], for which the EC50 is 0.01 to 1 nM.

Consider `CC(C)Nc1nc(NCc2ccc(C(F)(F)F)nc2)c2sccc2n1` [Example 119, N^2-isopropyl-N^4-((6-(trifluoromethyl)pyridin-3-yl)methyl)thieno[3,2-d]pyrimidine-2,4-diamine], for which the EC50 lay in the range of 100 to 1000 nM.

As for `FC(F)OC1CCCN(c2nc(NCc3cccnc3C(F)(F)F)c3cccnc3n2)C1` (centres unmarked) [Example 292, 2-(3-(difluoromethoxy)piperidin-1-yl)-N-((2-(trifluoromethyl)pyridin-3-yl)methyl)pyrido[2,3-d]pyrimidin-4-amine], the EC50 is < 0.01 nM.

Turning to `N#Cc1ccccc1CNc1nc(Cl)nc2ccsc12` [Example 104, 2-(((2-chlorothieno[3,2-d]pyrimidin-4-yl)amino)methyl)benzonitrile], the EC50 was in the range of 100 to 1000 nM.

As for `FC(F)(F)c1ccccc1CNc1nc(NC2COC2)nc2ncccc12` [Example 144, N^2-(oxetan-3-yl)-N^4-(2-(trifluoromethyl)benzyl)pyrido[2,3-d]pyrimidine-2,4-diamine], the EC50 was 10 to 100 nM.

In the case of `FC(F)(F)c1ncccc1CNc1ncnc2ncc(Br)cc12` [Example 180], the EC50 lay in the range of 1000 to 100000 nM.

As for `N#Cc1nc(NCc2ccccc2C(F)(F)F)c2sccc2n1` [Example 80], the EC50 fell in the range of 10 to 100 nM.

Consider `CC(C)Nc1nc(NCc2ccc(C(F)(F)F)nc2)c2ccccc2n1` [Example 114, N^2-isopropyl-N^4-((6-(trifluoromethyl)pyridin-3-yl)methyl)quinazoline-2,4-diamine], for which the EC50 lay in the range of 100 to 1000 nM.

For `CC(C)Nc1nc(Nc2ccccc2C(F)(F)F)c2sccc2n1` [Example 59, N^2-isopropyl-N^4-(2-(trifluoromethyl)phenyl)thieno[3,2-d]pyrimidin-2,4-amine], the EC50 was in the range of 100 to 1000 nM.

For the molecule `CN(Cc1ccccc1C(F)(F)F)c1ncnc2ccsc12` [Example 44, N-methyl-N-(2-(trifluoromethyl)benzyl)thieno[3,2-d]pyrimidin-4-amine], the EC50 is 10 to 100 nM.

`CN1CCN(c2nc(NCc3ccccc3C(F)(F)F)c3sccc3n2)CC1` [Example 95, 2-(4-methylpiperazin-1-yl)-N-(2-(trifluoromethyl)benzyl)thieno[3,2-d]pyrimidin-4-amine]: the EC50 lay within 1000 to 100000 nM.

Regarding `CC1CN(c2nc(NCc3cccnc3C(F)(F)F)c3cccnc3n2)C[C@H](C)O1` (stereo partly drawn) [Example 254, 2-((6S)-2,6-dimethylmorpholino)-N-((2-(trifluoromethyl)pyridin-3-yl)methyl)pyrido[2,3-d]pyrimidin-4-amine], the EC50 fell in the range of 0.01 to 1 nM.

For `O=C1CCCN1CCCNc1nc(NCc2ccccc2C(F)(F)F)c2sccc2n1` [Example 88, 1-(3-((4-((2-(trifluoromethyl)benzyl)amino)thieno[3,2-d]pyrimidin-2-yl)amino)propyl)pyrrolidin-2-one], the EC50 is 1000 to 100000 nM.

As for `N#CC1CN(c2nc(NCc3ccccc3C(F)(F)F)c3cccnc3n2)C1` [Example 245, 1-(4-((2-(trifluoromethyl)benzyl)amino)pyrido[2,3-d]pyrimidin-2-yl)azetidine-3-carbonitrile], the EC50 lay within 1 to 10 nM.

As for `CC(C)N(C)c1nc(N2CCCN2c2ccccc2C(F)(F)F)c2cccnc2n1` [Example 190, N-isopropyl-N-methyl-4-(2-(2-(trifluoromethyl)phenyl)pyrazolidin-1-yl)pyrido[2,3-d]pyrimidin-2-amine], the EC50 fell in the range of 100 to 1000 nM.

Consider `CN1CCN(CCNc2nc(NCc3ccccc3C(F)(F)F)c3sccc3n2)CC1` [Example 92, N^2-(2-(4-methyipiperazin-1-yl)ethyl)-N^4-(2-(trifluoromethyl)benzyl)thieno[3,2-d]pyrimidine-2,4-diamine], for which the EC50 lay within 1000 to 100000 nM.

`CC1(O)CN(c2nc(NCc3cccnc3C(F)(F)F)c3cccnc3n2)C1` [Example 171, 3-methyl-1-(4-(((2-(trifluoromethyl)pyridin-3-yl)methyl)amino)pyrido[2,3-d]pyrimidin-2-yl)azetidin-3-ol]: the EC50 lay in the range of 100 to 1000 nM.

Consider `Cc1nc(N(C)C(C)c2ccccc2C(F)(F)F)c2sc(C3(O)COC3)cc2n1` (centres unmarked) [Example 76], for which the EC50 fell in the range of 1000 to 100000 nM.

Regarding `FC(F)(F)c1ncccc1CNc1nc(NC2COC2)nc2ncccc12` [Example 158, N^2-(oxetan-3-yl)-N^4-((2-(trifluoromethyl)pyridin-3-yl)methyl)pyrido[2,3-d]pyrimidine-2,4-diamine], the EC50 is 100 to 1000 nM.

As for `CC(C)Nc1nc(NCc2ccccc2Cl)c2sccc2n1` [Example 17, N^4-(2-chlorobenzyl)-N^2-isopropylthieno[3,2-d]pyrimidine-2,4-diamine], the EC50 fell in the range of 10 to 100 nM.

`CC(C)Nc1nc(NCc2ccc(C(F)(F)F)cc2)c2ccccc2n1` [Example 111, N^2-isopropyl-N^4-(4-(trifluoromethyl)benzyl)quinazoline-2,4-diamine]: the EC50 lay within 1000 to 100000 nM.

For `N#CC1CCCN1c1nc(NCc2cccnc2C(F)(F)F)c2cccnc2n1` (centres unmarked) [Example 238, 1-(4-(((2-(trifluoromethyl)pyridin-3-yl)methyl)amino)pyrido[2,3-d]pyrimidin-2-yl)pyrrolidine-2-carbonitrile], the EC50 is 10 to 100 nM.

In the case of `CC(C)Nc1nc(NCc2ccccc2C(F)(F)F)c2sccc2n1` [Example 28, N^2-isopropyl-N^4-(2-(trifluoromethyl)benzyl)thieno[3,2-d]pyrimidine-2,4-diamine], the EC50 fell in the range of 10 to 100 nM.

As to `FC(F)(F)c1ccccc1CNc1ncnc2ccsc12` [Example 23, N-(2-(trifluoromethyl)benzyl)thieno[3,2-d]pyrimidin-4-amine], the EC50 lay within 10 to 100 nM.

`[2H]c1cc2nc(C)nc(N(C)C(C)c3ccccc3C(F)(F)F)c2s1` (centres unmarked) [Example 71]: the EC50 lay within 10 to 100 nM.

With `Cc1nc(NCc2ccc(F)cc2C(F)(F)F)c2ccccc2n1` [Example 73, N-(4-fluoro-2-(trifluoromethyl)benzyl)-2-methylquinazolin-4-amine], the EC50 is 100 to 1000 nM.

With `CC(C)Nc1nc(NCc2ccc(C#N)cc2)c2cccnc2n1` [Example 126, N^4-(4-cyanobenzyl)-N^2-isopropylpyrido[2,3-d]pyrimidine-2,4-diamine], the EC50 was 100 to 1000 nM.

On to `CC1CCN(c2nc(NCc3cccnc3C(F)(F)F)c3cccnc3n2)CC1` [Example 312, 2-(4-methylpiperidin-1-yl)-N-((2-(trifluoromethyl)pyridin-3-yl)methyl)pyrido[2,3-d]pyrimidin-4-amine], for which the EC50 was in the range of 0.01 to 1 nM.

With `FC(F)(F)c1ncccc1CNc1nc(N2CCC2)nc2ncccc12` [Example 163, 2-(azetidin-1-yl)-N-((2-(trifluoromethyl)pyridin-3-yl)methyl)pyrido[2,3-d]pyrimidin-4-amine], the EC50 was 10 to 100 nM.

As for `FC(F)O[C@@H]1CCN(c2nc(NCc3cccnc3C(F)(F)F)c3cccnc3n2)C1` [Example 280, (R)-2-(3-(difluoromethoxy)pyrrolidin-1-yl)-N-((2-(trifluoromethyl)pyridin-3-yl)methyl)pyrido[2,3-d]pyrimidin-4-amine], the EC50 lay within 0.01 to 1 nM.

Consider `CC1(C)CCN(c2nc(NCc3ccccc3C(F)(F)F)c3cccnc3n2)CC1` [Example 244, 2-(4,4-dimethylpiperidin-1-yl)-N-(2-(trifluoromethyl)benzyl)pyndo[2,3-d]pyrimidin-4-amine], for which the EC50 lay in the range of 1 to 10 nM.

With `FC1(F)CCN(c2nc(N3CCC3c3cccnc3C(F)(F)F)c3cccnc3n2)CC1` (centres unmarked) [Example 218, 2-(4,4-difluoropiperidin-1-yl)-4-(2-(2-(trifluoromethyl)pyridin-3-yl)azetidin-1-yl)pyrido[2,3-d]pyrimidine], the EC50 is 0.01 to 1 nM.

Consider `CC(C)Nc1nc(NCc2cccc(F)c2)c2sccc2n1` [Example 14, N^4-(3-fluorobenzyl)-N^2-isopropylthieno[3,2-d]pyrimidine-2,4-diamine], for which the EC50 lay within 100 to 1000 nM.

With `FC1(F)CCN(Cc2nc(NCc3ccccc3C(F)(F)F)c3cccnc3n2)CC1` [Example 223], the EC50 was 100 to 1000 nM.

With `FC(F)C1CN(c2nc(NCc3cccnc3C(F)(F)F)c3cccnc3n2)CCO1` (centres unmarked) [Example 282, 2-(2-(difluoromethyl)morpholino)-N-((2-(trifluoromethyl)pyridin-3-yl)methyl)pyrido[2,3-d]pyrimidin-4-amine], the EC50 lay in the range of 0.01 to 1 nM.

Regarding `COc1ccc(CNc2nc(NC(C)C)nc3ccsc23)cc1` [Example 131, N^2-isopropyl-N^4-(4-methoxybenzyl)thieno[3,2-d]pyrimidine-2,4-diamine], the EC50 was 1000 to 100000 nM.
